What all share (assay): glycosidase inhibition assay
What all share (conditions): read-out: % inhibition at 1 mM

Assay [1] concerns the target T1, α-D-glucosidase from Bacillus stearothermophilus (Geobacillus stearothermophilus, UniProt A0ACH1E9U3).
T1 construct: gene QSJ10_02665
T1 sequence (A0ACH1E9U3 1-555): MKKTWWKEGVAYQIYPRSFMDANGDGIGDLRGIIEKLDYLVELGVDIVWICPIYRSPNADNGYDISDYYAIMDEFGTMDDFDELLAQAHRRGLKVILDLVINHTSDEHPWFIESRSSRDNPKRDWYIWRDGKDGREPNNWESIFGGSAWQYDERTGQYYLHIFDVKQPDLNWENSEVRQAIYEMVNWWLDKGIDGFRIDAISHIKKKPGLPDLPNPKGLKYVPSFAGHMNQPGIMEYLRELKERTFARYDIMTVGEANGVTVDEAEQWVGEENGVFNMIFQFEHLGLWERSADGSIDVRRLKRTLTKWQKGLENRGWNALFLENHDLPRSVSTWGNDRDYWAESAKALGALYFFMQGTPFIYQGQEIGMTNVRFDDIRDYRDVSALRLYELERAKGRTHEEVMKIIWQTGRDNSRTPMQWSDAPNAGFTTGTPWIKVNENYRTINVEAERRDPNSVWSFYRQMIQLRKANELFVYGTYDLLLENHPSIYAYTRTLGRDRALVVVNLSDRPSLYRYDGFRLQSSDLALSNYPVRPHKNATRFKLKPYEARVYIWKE

Assay [2] deals with T2, α-L-fucosidase from bovine kidney (Bos taurus, UniProt Q2KIM0).
T2 construct: gene FUCA1; commercial native enzyme from kidney
T2 sequence (Q2KIM0 23-468): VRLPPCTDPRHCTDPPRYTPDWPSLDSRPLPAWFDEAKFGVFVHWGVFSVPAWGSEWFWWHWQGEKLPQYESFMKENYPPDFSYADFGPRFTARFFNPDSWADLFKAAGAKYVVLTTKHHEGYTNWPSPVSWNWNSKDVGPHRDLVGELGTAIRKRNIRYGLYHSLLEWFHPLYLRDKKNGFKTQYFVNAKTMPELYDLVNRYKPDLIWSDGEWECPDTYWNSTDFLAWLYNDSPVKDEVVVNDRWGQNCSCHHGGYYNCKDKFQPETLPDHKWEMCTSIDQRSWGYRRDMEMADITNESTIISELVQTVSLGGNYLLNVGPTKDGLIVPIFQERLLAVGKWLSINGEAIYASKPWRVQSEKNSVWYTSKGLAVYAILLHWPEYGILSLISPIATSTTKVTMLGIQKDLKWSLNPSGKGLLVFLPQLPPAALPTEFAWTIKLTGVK
The assay is classed as biochemical. The text has this:
glycosidase inhibition assay on α-L-fucosidase from bovine kidney

Assay [3] concerns the target T3, amyloglucosidase from Aspergillus niger (Aspergillus niger, UniProt P69328).
T3 construct: gene GLAA; commercial native enzyme preparation
In kind it is biochemical. The text has this:
glycosidase inhibition assay on amyloglucosidase from Aspergillus niger

Assay [4] deals with T4, α-D-mannosidase from Jack beans (Canavalia ensiformis, UniProt C0HJB3).
T4 construct: commercial native enzyme preparation
T4 sequence (C0HJB3 1-562): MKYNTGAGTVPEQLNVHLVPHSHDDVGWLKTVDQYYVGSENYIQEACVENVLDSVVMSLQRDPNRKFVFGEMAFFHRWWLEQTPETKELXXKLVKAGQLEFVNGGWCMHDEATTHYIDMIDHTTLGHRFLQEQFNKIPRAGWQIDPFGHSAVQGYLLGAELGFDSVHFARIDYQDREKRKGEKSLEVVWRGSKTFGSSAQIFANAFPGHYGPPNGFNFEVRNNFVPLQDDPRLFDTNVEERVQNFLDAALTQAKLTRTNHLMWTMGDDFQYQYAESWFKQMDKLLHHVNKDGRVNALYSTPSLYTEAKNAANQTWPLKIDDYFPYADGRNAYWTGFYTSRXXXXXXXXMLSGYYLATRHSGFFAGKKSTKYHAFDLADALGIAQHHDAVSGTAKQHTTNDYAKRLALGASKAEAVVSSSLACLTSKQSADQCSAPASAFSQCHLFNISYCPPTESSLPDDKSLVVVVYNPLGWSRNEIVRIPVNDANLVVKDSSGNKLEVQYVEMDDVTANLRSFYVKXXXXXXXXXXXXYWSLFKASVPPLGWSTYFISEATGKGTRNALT
T4 sequence (C0HJB3 563-981): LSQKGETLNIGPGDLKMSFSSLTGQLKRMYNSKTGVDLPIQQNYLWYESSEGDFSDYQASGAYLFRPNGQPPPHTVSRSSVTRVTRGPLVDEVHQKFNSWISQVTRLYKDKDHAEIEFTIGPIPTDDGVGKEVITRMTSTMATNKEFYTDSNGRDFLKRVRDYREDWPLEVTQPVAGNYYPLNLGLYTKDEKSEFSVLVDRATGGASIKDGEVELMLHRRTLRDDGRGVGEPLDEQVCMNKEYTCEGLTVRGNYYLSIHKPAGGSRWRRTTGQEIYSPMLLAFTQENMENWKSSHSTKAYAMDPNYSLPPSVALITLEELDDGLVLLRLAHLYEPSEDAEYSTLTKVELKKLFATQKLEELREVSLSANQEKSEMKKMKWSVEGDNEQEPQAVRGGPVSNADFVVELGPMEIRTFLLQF
The assay is classed as biochemical. An excerpt:
glycosidase inhibition assay on α-D-mannosidase from Jack beans

The values below come from paper PMC1399460, “Synthesis and glycosidase inhibitory activity of new hexa-substituted C8-glycomimetics” (Beilstein Journal of Organic Chemistry, 2005).

T3 sequence (P69328 25-640): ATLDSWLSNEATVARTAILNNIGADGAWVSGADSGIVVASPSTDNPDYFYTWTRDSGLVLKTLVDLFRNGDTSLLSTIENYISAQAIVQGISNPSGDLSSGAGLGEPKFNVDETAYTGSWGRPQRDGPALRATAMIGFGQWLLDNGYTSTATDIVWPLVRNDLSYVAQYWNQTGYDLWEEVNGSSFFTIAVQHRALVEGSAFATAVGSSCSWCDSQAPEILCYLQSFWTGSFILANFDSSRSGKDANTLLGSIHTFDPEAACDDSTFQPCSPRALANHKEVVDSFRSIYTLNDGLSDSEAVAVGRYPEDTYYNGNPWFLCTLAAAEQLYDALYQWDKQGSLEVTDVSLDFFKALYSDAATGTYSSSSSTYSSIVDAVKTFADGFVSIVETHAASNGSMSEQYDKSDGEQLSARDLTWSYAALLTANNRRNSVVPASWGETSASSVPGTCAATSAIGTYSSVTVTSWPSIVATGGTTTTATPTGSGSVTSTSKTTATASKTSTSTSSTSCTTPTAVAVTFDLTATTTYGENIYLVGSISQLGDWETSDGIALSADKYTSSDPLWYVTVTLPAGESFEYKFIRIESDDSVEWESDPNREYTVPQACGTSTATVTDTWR

As usually defined, the inhibition is how much of the control response was suppressed. As to `O[C@H]1[C@H](O)[C@@H](O)C[C@H](O)[C@H](O)C[C@@H]1O` [compound 5, C8 hexa-substituted carbasugar 5], the figures for the inhibition at 1000 µM in assay [1] and in assay [2] were 9% and 14%, respectively.

Consider `O[C@H]1[C@H](O)[C@H](O)C[C@H](O)[C@H](O)C[C@H]1O` [compound 6, C8 hexa-substituted carbasugar 6], for which the inhibition at 1000 µM in assay [2] is 13%. Regarding `N[C@H]1C[C@H](O)[C@@H](O)[C@H](O)[C@@H](O)C[C@@H]1O` [compound 15, aminocyclitol 15], the figures for the inhibition at 1000 µM in assay [3] and in assay [4] were 28% and 16%, respectively. As to `N[C@@H]1C[C@@H](O)[C@@H](O)[C@H](O)[C@H](O)C[C@H]1O` [compound 16, aminocyclitol 16], the inhibition at 1000 µM in assay [4] was determined as 8%. For `OCC(CO)N[C@H]1C[C@H](O)[C@@H](O)[C@H](O)[C@@H](O)C[C@@H]1O` [compound 19, C8-voglibose mimetic 19], the inhibition at 1000 µM stood at 27% in assay [3] and 10% in assay [4]. For the molecule `OCC(CO)N[C@@H]1C[C@@H](O)[C@@H](O)[C@H](O)[C@H](O)C[C@H]1O` [compound 20, aminocyclitol 20], the results for the inhibition at 1000 µM in assay [3], in assay [1] and in assay [4] were 29%, 6% and 8%, respectively.
